Positions count from the first letter of the chain named.
Legend:
Format in all cases: cell-based
hTRPV3 channels = target: T1, hTRPV3 channels (Homo sapiens, UniProt Q8NET8); assay: Whole-cell patch-clamp of hTRPV3 currents activated by 2-APB in HEK293 cells
T1 construct: expressed in transfected cells; host or cells: HEK293
T1 sequence (Q8NET8 1-790): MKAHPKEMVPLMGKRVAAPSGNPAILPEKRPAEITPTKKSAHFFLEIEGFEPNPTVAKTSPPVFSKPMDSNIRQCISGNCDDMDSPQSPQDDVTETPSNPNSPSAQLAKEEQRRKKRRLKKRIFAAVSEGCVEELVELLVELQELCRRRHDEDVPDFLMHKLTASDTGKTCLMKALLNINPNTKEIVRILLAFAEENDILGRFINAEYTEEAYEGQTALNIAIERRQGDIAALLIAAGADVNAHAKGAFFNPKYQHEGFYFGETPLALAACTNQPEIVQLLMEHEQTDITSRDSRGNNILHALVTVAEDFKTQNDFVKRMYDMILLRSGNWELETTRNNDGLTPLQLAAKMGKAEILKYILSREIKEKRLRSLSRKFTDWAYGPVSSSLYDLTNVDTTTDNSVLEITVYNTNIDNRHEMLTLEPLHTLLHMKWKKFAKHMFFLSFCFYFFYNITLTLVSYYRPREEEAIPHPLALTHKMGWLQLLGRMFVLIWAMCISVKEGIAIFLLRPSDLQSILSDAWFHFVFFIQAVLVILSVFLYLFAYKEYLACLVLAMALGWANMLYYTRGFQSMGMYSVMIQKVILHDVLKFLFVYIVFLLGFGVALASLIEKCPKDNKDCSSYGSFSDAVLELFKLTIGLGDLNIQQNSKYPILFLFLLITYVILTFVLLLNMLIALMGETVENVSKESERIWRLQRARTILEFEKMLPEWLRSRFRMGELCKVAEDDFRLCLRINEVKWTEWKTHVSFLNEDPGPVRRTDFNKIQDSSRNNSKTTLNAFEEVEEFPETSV
Description: (§1) HEK293 cells were cultured in Dulbecco’s modified Eagle’s medium (DMEM, Gibco) containing 4.5 g/L D-glucose supplemented with 10% fetal bovine serum based at 37 °C with 5% CO2. For whole-cell patch-clamp recordings, cells were grown in glass coverslips for 24 h before transient transfections with 3000 ng cDNAs of hTRPV3 (gene accession number BC104866.1), hTRPV1 (accession number NM_080704.3), mTRPV2 (accession number NM_011706.2), hTRPV4 (accession number NM_021625.5), hTRPA1 (accession number NM_007332.3) and hTRPM8 (accession number NM_024080.5) into HEK293 cells grown in a 35-mm cell culture dish using Lipofectamine 2000 (Invitrogen). Cells were used 18 ∼ 24 h after transfection. All WT or mutant hTRPV3 plasmids were validated by DNA sequencing.
(§2) Whole-cell patch clamp recordings of wild-type and mutants were carried out at room temperature using the HEKA EPC10 amplifier powered by PatchMaster software (HEKA) or MultiClamp 700B amplifier driven by Clampex 11.0.3 software. The borosilicate glass pipettes were pulled and fire-polished to 3∼6 MΩ using a DMZ universal electrode puller (Zeitz-Instruments, GmbH). Pipette solution and bath solution both contained (in mM): 130 NaCl, three HEPES, and 0.2 EDTA (pH = 7.4). Cell membrane potential was held at 0 mV, currents were recorded at a voltage ramp from −100 to +100 mV for 500-ms and analyzed at ±80 mV.

hTRPM8 = target: T2, hTRPM8 (Homo sapiens, UniProt Q7Z2W7); assay: Whole-cell patch-clamp of TRPM8 currents elicited by menthol in HEK293 cells; details: flopropione 100 μM, menthol 500 μM
T2 construct: expressed in transfected cells; host or cells: HEK293
T2 sequence (Q7Z2W7 whole entry): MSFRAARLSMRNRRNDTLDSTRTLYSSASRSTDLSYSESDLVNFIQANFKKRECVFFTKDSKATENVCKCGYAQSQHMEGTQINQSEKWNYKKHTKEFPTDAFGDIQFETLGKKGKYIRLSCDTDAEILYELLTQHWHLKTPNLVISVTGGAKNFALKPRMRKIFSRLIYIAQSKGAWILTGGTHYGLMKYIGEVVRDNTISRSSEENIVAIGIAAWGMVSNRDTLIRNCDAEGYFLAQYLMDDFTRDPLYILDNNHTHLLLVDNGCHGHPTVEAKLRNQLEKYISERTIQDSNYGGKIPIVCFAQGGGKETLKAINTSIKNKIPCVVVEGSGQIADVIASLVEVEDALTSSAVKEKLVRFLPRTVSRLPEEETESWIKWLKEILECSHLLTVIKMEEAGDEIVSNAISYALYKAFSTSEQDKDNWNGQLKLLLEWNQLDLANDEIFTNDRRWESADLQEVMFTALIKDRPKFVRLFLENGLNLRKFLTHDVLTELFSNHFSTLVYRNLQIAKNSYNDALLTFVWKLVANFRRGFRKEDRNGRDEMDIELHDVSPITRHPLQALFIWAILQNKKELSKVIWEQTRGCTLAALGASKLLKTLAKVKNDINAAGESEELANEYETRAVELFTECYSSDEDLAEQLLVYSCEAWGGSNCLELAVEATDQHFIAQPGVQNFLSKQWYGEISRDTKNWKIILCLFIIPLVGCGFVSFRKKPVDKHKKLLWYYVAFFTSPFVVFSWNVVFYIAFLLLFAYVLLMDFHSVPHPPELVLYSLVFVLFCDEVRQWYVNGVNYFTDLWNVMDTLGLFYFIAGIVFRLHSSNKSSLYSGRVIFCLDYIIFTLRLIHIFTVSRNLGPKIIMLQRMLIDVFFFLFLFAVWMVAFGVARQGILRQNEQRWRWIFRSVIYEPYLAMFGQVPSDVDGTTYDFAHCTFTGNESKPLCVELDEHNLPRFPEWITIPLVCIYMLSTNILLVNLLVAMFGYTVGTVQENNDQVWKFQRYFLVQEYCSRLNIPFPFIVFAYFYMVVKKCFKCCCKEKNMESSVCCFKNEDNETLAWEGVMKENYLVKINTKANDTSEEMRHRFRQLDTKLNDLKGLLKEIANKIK
Description: as §1, §2

hTRPV3 R509A mutant = target: T3, hTRPV3 R509A mutant (Homo sapiens, UniProt Q8NET8, R509A); assay: Whole-cell recordings of TRPV3 R509A mutant; details: 100 μM flopropione, 2-APB
T3 construct: expressed in transfected cells; host or cells: HEK293
T3 sequence (Q8NET8 1-790 R509A): T1 sequence (Q8NET8 1-790) with R509A
Description: as §1, §2

inhibition at 100 µM (hTRPV3 channels; HEK293, flopropione 100 μmol/L, agonist 2-APB 50 μmol/L, read-out: inhibition of TRPV3 currents): ~84%
IC50 (hTRPV3 channels; whole-cell, HEK293, 50 μM 2-APB activation, n = 5, mean ± SD, read-out: IC50 of dose-dependent inhibition of TRPV3 currents): 17.8 ± 3.5 µM
effect on TRPM8 currents (hTRPM8): no effect
SMILES: CCC(=O)c1c(O)cc(O)cc1O [flopropione]
sensitivity of R509A mutant to flopropione inhibition (hTRPV3 R509A mutant): maintained the sensitivity to flopropione inhibition
